From US20210301038A1, “POLYSIALIC ACID AND DERIVATIVES THEREOF, PHARMACEUTICAL COMPOSITION AND METHOD OF PRODUCING POLYSIALIC ACID” (Medizinische Hochschule Hannover (MHH), priority 2018, published 2021)
Where a name gives a salt, the structure may show the parent alone.

Tests used:
[1] = system: layer II/III - layer V synapses in mPFC slices; assay: TBS-induced LTP (fEPSP) in sham- and endoNF-treated mPFC slices from C57BL/6 mice; type: cell-based, mouse; conditions: endoNF-treated slices; Ro 25-6981 0.3 μM; DP12 1 μg/ml; DP5 1 or 10 μg/ml; sarcosine 0.75 mM; SSR 504734 3 μM
Procedure: (§1) For endoNF treatment in C57BL/6J mice, slices were first allowed to recover for 20 min at room temperature (22-24° C.) in recording aCSF and were then placed in a 24-well plate to be incubated in 2 ml of aCSF without (sham) or with addition of endoNF (10 μg/ml) at 35° C. for 2 hours. The 24-well plate was installed in a water bath (ED, Julabo, Seelbach, Germany). For field excitatory postsynaptic potential (fEPSP) recordings in knockout and transgenic mice, mPFC slices were incubated in recording aCSF for >2 hours at room temperature before recordings. For patch-clamp recordings in knockout mice, slices were incubated first at 35° C. for 20 min and then at room temperature for >30 min before recordings started. The aCSF was continuously gassed with 95% O2/5% CO2 during all incubation steps and recordings.
(§2) Prefrontal slices (400 μm) were transferred to a submerged-type recording MC membrane chamber (volume 2 ml; Scientific Systems Design Inc., Mississauga, Ontario, Canada) perfused with oxygenated recording ACSF at a flow rate of 4 ml/min and maintained at room temperature (22-25° C.), unless stated otherwise in the “Results”-section given below. Field EPSPs were evoked and recorded using thin-walled glass electrodes (borosilicate glass, wall thickness 0.188, length 100, and outer diameter 1.5 mm, Hilgenberg, Malsfeld, Germany) filled with recording aCSF in 400 μm-thick mPFC slices. In order to stimulate electrically the input fibers of pyramidal cells, the stimulation electrode (0.3-0.5 MΩ) was inserted into layers II/III of the prelimbic cortex. The recording electrode (2-2.5 MΩ) was placed in the vicinity of dendrites and cell bodies of pyramidal neurons in layer V (Huang et al., 2004).
(§3) Before LTP induction, basal synaptic transmission was recorded in each slice and the relationship between stimulus intensity and fEPSP slope was measured. Basal fEPSPs were evoked at 0.05 Hz for at least 10 min. The supramaximal slope was determined by gradually increasing the stimulation intensity until a population spike in the fEPSP became first visible. The stimulation intensity was adjusted to elicit a basal fEPSP with a slope of approximately 50% of the supramaximal value.
(§4) LTP was induced by application of five trains of theta-burst stimulation (TBS) with an inter-theta-train interval of 20 s (Brennaman et al., 2011). Each train consisted of 8 bursts delivered at 5 Hz. Each burst consisted of four pulses delivered at 100 Hz. Duration of pulses was 0.2 ms. For calculation of the LTP level, the mean fEPSP slope was measured between 50-60 min after TBS delivery, and it was then normalized to mean baseline fEPSP slope during 0-10 min before TBS. Stimulus artifacts in representative fEPSP examples in figures were blanked to facilitate the perception of fEPSPs recorded in the mPFC. Recording and analysis of LTP in St8Sia4^−/− mice was performed in a blind manner.
The enzyme endosialidase NF (endoNF) (Stummeyer et al., 2005) and the short form of polysialic acid composed of 10 or twelve sialic acid residues (DP10 and DP12) were purified as described previously (Keys et al., 2014). Sialic acid (N-acetylneuraminic acid, DP1) and the pentamer of sialic acid sodium salt (DP5) were obtained from EY Laboratories (San Mateo, Calif., USA). DMB-labelled DP2 and DP12, and non-labelled avDP10-9OAc were synthesized in the laboratory of Rita Gerardy-Schahn (see sections Synthesis of DMB-DP2 and DMB-DP12 and Synthesis of avDP10-9OAc, respectively). […]

[2] = system: mPFC slices from St8sia4−/− mice; assay: TBS-induced LTP in mPFC slices from ST8SIA4-deficient mice and wild-type littermates; type: cell-based, mouse; conditions: Ro 25-6981 0.3 μM, DP12 1 μg/ml, sarcosine 0.75 mM
Procedure: as §1, §2, §3, §4

[3] = system: C57BL/6J mice with intra-mPFC endoNF injection; assay: Novel object recognition test before and after intra-mPFC endoNF injection; type: in vivo, mouse
Procedure: Guide cannulas were fabricated using stainless steel tubing with outer/inner diameter Ø 0.711/0.483 mm (Science Products, Germany). Dummy cannulas were made from entomological pins, size 2, Ø 0.41 mm (FST, Germany). Chronic implantation of cannulas into the mPFC in mice was performed as described previously for intrahippocampal injections (Kochlamazashvili et al., 2012; Senkov et al., 2015; Senkov et al., 2006).
Acute injection of endoNF in vivo was done under a short isoflurane anesthesia. For intra-mPFC injection, we used a digitally controlled infusion system (UltraMicroPump, UMP3, and Micro4 Controller, WPI, USA) fed with a 10 μl-Hamilton syringe and NanoFil 135 μm (35 GA) beveled needle. The thin (135 μm) part of the needle went into the mouse brain during injection, whereas its thick part (430 μm) fit perfectly in the guide cannula (inside 483 μm). Injections were performed as follows: 1) a mouse was anesthetized with 1-3% isoflurane as during implantation; 2) it was put into the stereotaxic frame; 3) the dummy cannula was gently removed from the left guide cannula; 4) a NanoFil injecting needle was carefully placed inside of the guide cannula and advanced further down until reaching the marker (made with a permanent pen at the needle shank (430 μm) to visualize the point when the needle should reach the surface of the brain coming out of the guide cannula (equal to the length of guide cannula); 5) once the marker was reached, a slow (10 μm increment) step dial was used to deepen the needle into the brain; 6) endoNF (2 μg/μl) or vehicle was injected with the following settings: 250 nl per site as deep as 1.5 and 2.25 mm from the brain surface (total injection volume per hemisphere 500 nl, injection rate of 3 nl/s); 7) after injection was complete (˜5 min), the needle was left in the injection site for another 5 min and then gently removed; 8) the dummy cannula was then put back to its place; 9) the same procedure was performed for the right hemisphere. The whole injection process took approximately 20-25 min under isoflurane anesthesia, and the mice recovered rather quickly, starting to move in approximately 2-3 min after being returned to their home cages. Complete recovery of a mouse after such short anesthesia usually occurs within 3-5 min. After injection, mice were returned to their animal facility. Behavior experiments started on the day after injection at approximately the same time, so that we could perform cognitive tests 24 hours after injection.
A white open field arena (50×50×30 cm) was used in the novel object recognition task. All behavior was video recorded and analyzed automatically by software (ANY-maze, version 4.99, Stoelting Co., Wood Dale, Ill.). […]

[4] = system: NMDAR-EPSCs (GluN1/GluN2B receptors); assay: Evoked NMDAR-EPSCs, whole-cell patch-clamp of layer V pyramidal neurons in sham- or endoNF-treated mPFC slices; type: cell-based, mouse; conditions: 0.1 μM, in the presence of 5-HT4 antagonist RS 39604 (10 μM)
Source text: Each mouse was quickly sacrificed by cervical dislocation. After decapitation, the brain was rapidly removed from the skull and placed in ice-cold artificial cerebrospinal fluid (aCSF) equilibrated with 95% O2/5% CO2, which was composed of the following (in mM): 250 sucrose, 24 NaHCO3, 25 glucose, 2.5 KCl, 1.25 NaH2PO4, 2 CaCl2, and 1.5 MgCl2 (osmolarity 345-350 mOsm/kg, pH 7.4). Using a VT1200S vibratome (Leica, Nussloch, Germany), coronal slices containing the prelimbic and infralimbic cortices (1.9-1.3 mm anterior to bregma) were cut 350 μm or 400 μm thick, for patch clamp and extracellular recordings, respectively, in the same sucrose-containing aCSF. Then, the slices were transferred to a slice holding chamber filled with recording aCSF (osmolarity 300-305 mOsm/kg, pH 7.4) that contained 120 mM NaCl instead of sucrose (Eckhardt et al., 2000) and was continuously gassed with 95% O2/5% CO2.
as §1
For whole-cell patch-clamp recordings, layer V pyramidal neurons were visualized using a SliceScope Pro 6000 equipped with a 40× water-immersion objective and infrared differential interference contrast microscopy (Scientifica, Uckfield, UK). Pyramidal cells were identified by their triangular soma and long apical dendrites, and synaptically evoked excitatory postsynaptic currents (EPSCs) were recorded using patch pipettes (3-5 MQ) fabricated using borosilicate glass capillaries (wall thickness 0.315, length 100, outer diameter 1.5 mm, Hilgenberg) and a DMZ-Zeitz puller (Zeitz Instruments GmbH, Martinsried, Germany). The intracellular pipette solution contained the following (in mM): 140.7 Cs-methane-sulfonate, 5 NaCl, 1 MgCl2, 0.2 EGTA, 10 HEPES, 3 ATP-Mg, 0.3 Na-GTP, and 3.1 QX-314 (osmolarity 295 mOsm/kg, adjusted to pH 7.2 with CsOH). EPSCs were evoked by electrical pulses (0.2 ms) at 0.033 Hz via a glass pipette placed in layer II/III of the mPFC (identically to fEPSPs). Mixed EPSCs showing a fast AMPAR-mediated component and a slow NMDAR-mediated component were recorded at a −60 mV holding potential in whole-cell voltage-clamp mode in normal aCSF. The stimulation intensity was adjusted to evoke mixed EPSCs with amplitudes of approximately 300 pA. The slow NMDAR-mediated component of EPSCs was pharmacologically isolated at −60 mV in modified aCSF containing low Mg^2+ (0.1 mM) and high Ca^2+ (3.2 mM, for adjustment of divalent cation concentrations), the selective antagonist of α-amino-3-hydroxy-5-methyl-4-isoxazolepropionic acid (AMPA)/kainate receptors NBQX (10 μM), and the selective antagonist of γ-aminobutyric acid (GABA)B receptors CGP-55845 (2 μM) (Chen et al., 2003). The washout of Mg^2+ required at least 25 min. Recordings at a holding potential near the resting membrane potential allowed us to obtain stable NMDAR-EPSC recordings from pyramidal cells lasting for 1-1.5 hours. Series resistance (Rs, range 10-25 MΩ) was compensated (20-30%) and monitored continuously. Neurons in which Rs changed by more than 20% throughout the experiment were not included in the analysis. In voltage-clamp mode, membrane potential was not corrected for liquid junction potential. […]

Compound | LTP level 50-60 min after TBS [1] | LTP magnitude ([2]; St8sia4+/+ mice) | LTP level 50-60 min after TBS ([2]; St8sia4−/− mice) | novel object recognition after intra-mPFC endoNF injection ([3]; 30 min before encoding, sarcosine 600 mg/kg i.p. (d2), DP12 (d5) and DP1 (d6) 1 mg/kg intranasally) | novel object recognition before endoNF injection ([3]; d-1, 600 mg/kg i.p. 30 min before the encoding phase) | inhibition of NMDAR-EPSC amplitude ([4]; endoNF-treated slices) [%] | inhibition of NMDAR-EPSC amplitude ([4]; sham-treated slices) [%]
O=C(N[C@@H](c1ccccc1)[C@@H]1CCCCN1)c1cccc(C(F)(F)F)c1Cl [SSR 504734, 2-chloro-N—[(S)-phenyl[(2S)-piperidin-2-yl]methyl]-3-trifluoromethyl benzamide] | rescued LTP | – | – | – | – | – | –
CNCC(=O)O [sarcosine, N-methylglycine] | fully restored to sham levels | no effect | full restoration of LTP levels | fully alleviated | normal object recognition | – | –
[H]/N=C(/NCCCCC)N/N=C/c1c[nH]c2ccc(OC)cc12 [tegaserod, tegaserod maleate] | – | – | – | – | – | ~30 | ~50
